Laboratory results from article PMC9259591, “Irigenin, a novel lead from Iris confusa for management of Helicobacter pylori infection with selective COX-2 and HpIMPDH inhibitory potential” (Scientific Reports, 2022).

Legend:
ovine COX-1 = molecular target: T1, ovine COX-1 (Ovis aries, UniProt P05979); assay: COX-1 inhibitory activity, colourimetric COX inhibitor screening assay kit; assay type: biochemical; conditions: ovine COX-1; read-out: IC50 (COX-1)
T1 construct: purchased
Description: (§1) The inhibitory COX activity was assayed colourimetrically by examining the inhibition of the ovine COX-1 and human recombinant COX-2 enzymes as described by George et al.[38], using a COX inhibitor screening assay kit. The detailed procedures were described in the supplementary file.
(§2) The inhibitory COX activity was assayed colourimetrically by examining the inhibition of the ovine COX-1 and human recombinant COX-2 enzymes as described by George et al. ^2, using a COX inhibitory screening assay kit. This assay determines the COX peroxidase activity by monitoring the appearance of N,N,N',N'-tetramethyl-p-phenylenediamine (TMPD). Assay buffer (150 μL 0.1 M Tris–HCl pH 8.0), 10 μL heme and 10μL enzyme (COX-1 or COX-2) were added in each well. Ten μL of each tested sample concentration was added to each well and incubated for 15 minutes at 37°C. After incubation, 20 μL of TMPD was added to each well. For initiating the reaction, 10 μL 10 mM arachidonic acid was added and the plates were further incubated for another 2 minutes at 37°C. For terminating the reaction, 50 μL 1 N HCl and saturated stannous chloride were added.
(§3) Reaction mixture containing assay buffer and heme acted as the blank and a mixture with either COX-1 or COX-2 assay buffer and heme acted as the 100% initial activity (IA). […] The absorbances of oxidized TMPD (blue colour) were read in ELISA plate reader at 590 nm. The % inhibition was calculated using the following formula:
(§4) COX % Inhibition= [(100%IA−Inhibitor)/ 100% IA x 100]. Where, IA: 100% initial activity.
(§5) The concentration at which the tested sample produces 50% inhibition of COX-1 and/or COX-2 (IC50) was determined. The selectivity index (SI) was calculated also as IC50 (COX-1)/ (COX-2).

human recombinant COX-2 = molecular target: T2, human recombinant COX-2 (Homo sapiens, UniProt P35354); assay: COX-2 inhibitory activity, colourimetric COX inhibitor screening assay kit; assay type: biochemical
T2 construct: purchased
T2 sequence (P35354 18-604): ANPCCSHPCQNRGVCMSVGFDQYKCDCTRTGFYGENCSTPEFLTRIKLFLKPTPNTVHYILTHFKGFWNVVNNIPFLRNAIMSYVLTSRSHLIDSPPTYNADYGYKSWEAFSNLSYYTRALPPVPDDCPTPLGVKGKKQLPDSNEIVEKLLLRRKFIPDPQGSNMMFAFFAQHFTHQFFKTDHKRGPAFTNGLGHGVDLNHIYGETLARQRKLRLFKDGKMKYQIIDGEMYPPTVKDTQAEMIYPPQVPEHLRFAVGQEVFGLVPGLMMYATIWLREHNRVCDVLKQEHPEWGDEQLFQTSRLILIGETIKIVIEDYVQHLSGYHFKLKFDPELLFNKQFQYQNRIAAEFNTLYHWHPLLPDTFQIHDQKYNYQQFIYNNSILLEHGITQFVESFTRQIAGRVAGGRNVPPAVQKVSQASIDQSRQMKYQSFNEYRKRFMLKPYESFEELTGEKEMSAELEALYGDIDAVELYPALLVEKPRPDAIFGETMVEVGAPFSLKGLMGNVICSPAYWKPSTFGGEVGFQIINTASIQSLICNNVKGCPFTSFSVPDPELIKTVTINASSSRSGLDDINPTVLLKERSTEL
Description: as §1, §2, §3, §4, §5

[1] = tested on: RAW 264.7 macrophage cell line (NO); assay: nitric oxide (NO) inhibitory activity in lipopolysaccharide-stimulated macrophages; assay type: cell-based, murine; conditions: Mus musculus, RAW264.7; RAW 264.7 cells, 1 µg/mL lipopolysaccharide
Description: The detailed procedures were described in the supplementary file.
The cell was incubated at 37 °C in 5% carbon dioxide. RAW 264.7 cells were seeded onto a 96-well plate (1×10^5 cells/well) and incubated for 24 h. […] Followed by incubation, the cells stimulated with 1µg/mL of lipopolysaccharide for another 24 h. The supernatant was gently transferred to new 96-well plates and used for NO determination. L-N 6 - (1-iminoethyl) lysine hydrochloride), is used as standard drug. The absorbance (Abs) was measured in a microplate reader at 540 nm ^3. The percentage inhibition was calculated using the following formula:
Inhibition (%) = 1-[Control-Test] Control × 100.

[2] = molecular target: T3, Human inosine-5′-monophosphate dehydrogenase (hIMPDH2) (Homo sapiens, UniProt P12268); assay: In vitro hIMPDH2 inhibition assay (NADH absorbance at 340 nm); assay type: biochemical; set-up: key to hIMPDH2 inhibitory activity: % hIMPDH2 inhibition; conditions: for hIMPDH2 inhibitory activity: in % (unit assumed)
T3 construct: purchased NovoCIB SAS (Lyon, France)
Description: Human inosine-5′-monophosphate dehydrogenase (hIMPDH2) was purchased from NovoCIB SAS (Lyon, France). […] The detailed procedures were described in the supplementary file.
Thus, irigenin was selected to test its HpIMPDH inhibitory activity by monitoring NADH production at concentration range of 10–0.078 µM compared to clarithromycin as standard drug. Also, to examine irigenin selectivity toward the bacterial IMPDH, human hIMPDH2 inhibition potential was assayed.
Human inosine-5′-monophosphate dehydrogenase (hIMPDH2) was purchased from NovoCIB SAS (Lyon, France). […] The assay was carried out in 96-well plates (Tarsons, 980040). The reaction buffer consisted of hundred mM KCl, hundred mM Tris–HCl (pH 8.6), and five mM DTT, 4% v/v DMSO with or without the tested compound and 0.15 mU of purified hIMPDH2 enzyme per well (from 1.5 mg/mL stock concentration). The enzyme stock solution final volume was 2 μL per well, which was insignificant to cause final assay buffer composition change. Addition of (substrate buffer) 0.2 mM of IMP and 0.2 mM of NAD^+ initiated the assay, then it was allowed to proceed for 30 min at 37 °C. The formed NADH was measured by reading the absorbance at 340 nm. […] The concentration of the tested sample leading to 50% hIMPDH2 inhibition (IC50) was estimated.

T1 sequence (P05979 25-600): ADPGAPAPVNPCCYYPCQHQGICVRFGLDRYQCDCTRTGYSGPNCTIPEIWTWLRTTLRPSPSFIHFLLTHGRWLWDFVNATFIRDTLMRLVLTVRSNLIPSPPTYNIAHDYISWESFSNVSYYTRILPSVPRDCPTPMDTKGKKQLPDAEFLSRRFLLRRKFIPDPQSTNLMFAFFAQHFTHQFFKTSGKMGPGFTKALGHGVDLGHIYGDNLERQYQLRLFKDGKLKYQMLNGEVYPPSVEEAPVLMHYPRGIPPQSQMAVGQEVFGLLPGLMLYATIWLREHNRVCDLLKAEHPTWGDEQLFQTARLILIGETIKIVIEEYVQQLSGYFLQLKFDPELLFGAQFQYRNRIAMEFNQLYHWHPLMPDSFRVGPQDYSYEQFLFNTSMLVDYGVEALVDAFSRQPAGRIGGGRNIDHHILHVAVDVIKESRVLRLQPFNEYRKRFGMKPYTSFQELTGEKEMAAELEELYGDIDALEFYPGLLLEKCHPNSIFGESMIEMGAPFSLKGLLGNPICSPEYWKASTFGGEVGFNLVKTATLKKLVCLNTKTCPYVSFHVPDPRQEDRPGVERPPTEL

With COc1cc(-c2coc3cc(O)c(OC)c(O)c3c2=O)cc(O)c1OC [Irigenin (P3), 3′,5,7-trihydroxy-4′,5′,6 trimethoxyisoflavone] the IC50 (ovine COX-1) was 35.2 ± 1.4 µM, the IC50 (human recombinant COX-2; human recombinant COX-2) was 10.8 ± 0.86 µM and the “SI (COX-1/COX-2)” value (human recombinant COX-2; selectivity index calculated as IC50 (COX-1)/(COX-2)) was 3.26. It also gave an IC50 [1] of 42.5 ± 1.8 µM, an IC50 [2] of over 10 µM and a hIMPDH2 inhibitory activity ([2]; sample conc. 0.078 (range 10–0.078 µM)) of 0.00. For the same compound, the hIMPDH2 inhibitory activity ([2]; sample conc. 0.156 (range 10–0.078 µM)) was 0.00, the hIMPDH2 inhibitory activity ([2]; sample conc. 0.313 (range 10–0.078 µM)) was 0.00 and the hIMPDH2 inhibitory activity ([2]; sample conc. 0.625 (range 10–0.078 µM)) was 0.00. It also gave a hIMPDH2 inhibitory activity ([2]; sample conc. 1.25 (range 10–0.078 µM)) of 0.00, a hIMPDH2 inhibitory activity ([2]; sample conc. 2.5 (range 10–0.078 µM)) of 4.81 ± 0.91 and a hIMPDH2 inhibitory activity ([2]; sample conc. 5 (range 10–0.078 µM)) of 10.36 ± 0.72. The hIMPDH2 inhibitory activity ([2]; sample conc. 10 (range 10–0.078 µM)) was 22.68 ± 1.00.
